# Experimental data reported in ChEMBL document CHEMBL5604063, “ASAP - DENV-2 NS2B-NS3 protease fluorescence dose response” (2024).
# Values joined by “and” are separate entries in the source; they are usually repeats but may differ in a detail not shown here. Equal entries are not always repeated.
# Legend:
# Genome polyprotein [1] = molecular target: T1, Genome polyprotein (dengue virus type 2, UniProt P29990); assay type: functional, Thailand/16681/1984
# Genome polyprotein [2] = molecular target: T1, Genome polyprotein; assay type: functional, Thailand/16681/1984; remark: listed apart in the source
# T1 sequence (P29990 1346-1475 limits assumed): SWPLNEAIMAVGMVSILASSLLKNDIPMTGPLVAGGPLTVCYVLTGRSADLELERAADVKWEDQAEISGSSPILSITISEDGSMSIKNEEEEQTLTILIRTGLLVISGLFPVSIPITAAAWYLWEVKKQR
# T1 sequence (P29990 1476-2093 limits assumed): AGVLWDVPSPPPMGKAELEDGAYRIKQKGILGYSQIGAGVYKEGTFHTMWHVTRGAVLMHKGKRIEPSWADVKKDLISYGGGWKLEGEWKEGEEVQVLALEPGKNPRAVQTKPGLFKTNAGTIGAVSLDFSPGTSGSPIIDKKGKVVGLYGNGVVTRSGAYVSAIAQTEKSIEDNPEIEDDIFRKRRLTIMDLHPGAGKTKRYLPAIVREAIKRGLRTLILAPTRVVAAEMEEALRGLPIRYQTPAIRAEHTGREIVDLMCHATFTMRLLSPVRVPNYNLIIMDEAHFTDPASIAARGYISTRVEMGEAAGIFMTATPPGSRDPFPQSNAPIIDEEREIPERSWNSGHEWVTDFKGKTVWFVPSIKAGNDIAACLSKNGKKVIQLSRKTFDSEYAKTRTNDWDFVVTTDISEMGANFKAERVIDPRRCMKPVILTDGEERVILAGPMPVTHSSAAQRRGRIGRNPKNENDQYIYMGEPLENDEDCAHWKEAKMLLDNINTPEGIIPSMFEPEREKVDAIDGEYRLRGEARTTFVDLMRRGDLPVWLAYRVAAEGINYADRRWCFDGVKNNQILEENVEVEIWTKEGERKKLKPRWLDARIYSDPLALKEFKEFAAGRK
SMILES,IC50 (Genome polyprotein [1]),IC50 (Genome polyprotein [2])
CN1CCC([C@H]2CCCN(C(=O)Nc3ccc4c(c3)CNC4)C2)CC1,> 99.5 µM,> 100 µM
COCCNC(=O)[C@H](Nc1ccc2c(c1)CNC2)c1cc(Cl)cc(C2CC2)c1,> 99.5 µM,> 100 µM
Cc1cc(C(=O)Nc2ccc3c(c2)CNC3)c2cnn(C)c2n1,> 99.5 µM,> 100 µM
Cc1cc(NC(=O)c2cc(Cl)cc3[nH]ncc23)ccc1N1CCNCC1,83.5 µM,> 100 µM
O=C(NC[C@H]1CCCO1)[C@H](Nc1ccc2c(c1)CNC2)c1cc(Cl)cc2[nH]ncc12,> 99.5 µM,> 100 µM
Cc1ccc(C)n1-c1ccc(Cl)cc1C(=O)Nc1ccc2c(c1)CNC2,> 99.5 µM,> 100 µM
Cc1cccc(CNc2ccc(Cl)cc2C(=O)Nc2ccc3c(c2)CNC3)n1,> 99.5 µM,> 100 µM
COc1cc(Br)cc2c1NC(=O)[C@]2(Nc1ccc2c(c1)CNC2)C(N)=O,> 99.5 µM,> 100 µM
N#C[C@H](Nc1ccc2c(c1)CNC2)c1cccc2[nH]ncc12,> 99.5 µM,> 100 µM
O=C(Nc1ccc2c(c1)CNC2)c1cccc(-c2cnco2)c1,27.6 µM,57.7 µM and 70.3 µM
N#Cc1cc(Cl)cc(C(=O)Nc2ccc3c(c2)CNC3)c1,> 99.5 µM,> 100 µM
Cn1cc2cc(Cl)cc(C(=O)Nc3ccc4c(c3)CNC4)c2n1,> 99.5 µM,69.9 µM and > 100 µM
O=C(Nc1ccc2c(c1)CNC2)c1cc(Cl)cc2nccnc12,73.5 µM,77.9 µM
O=C(Nc1ccc2c(c1)CNC2)N1CCC2(C1)CC(F)(F)C2,> 99.5 µM,> 100 µM
O=C(Nc1ccc2c(c1)CNC2)c1nc2ccccc2s1,> 99.5 µM,87.8 µM
O=C(NCc1ccc2c(c1)CCNC2)c1cc(Cl)cc2[nH]ncc12,> 99.5 µM,> 100 µM
Cc1cc(C(F)(F)F)cc(C(=O)Nc2ccc3c(c2)CNC3)n1,48.6 µM,> 100 µM
CCc1ncc(Cl)cc1C(=O)Nc1ccc2c(c1)CNC2,> 99.5 µM,> 100 µM
N#CCCNC(=O)[C@H](Nc1ccc2c(c1)CNC2)c1cc(Cl)cc(C2CC2)c1,> 99.5 µM,> 100 µM
Cc1nc2cc(Cl)ccc2cc1C(=O)Nc1ccc2c(c1)CNC2,> 99.5 µM,> 100 µM
C[C@H]1C[C@H](c2cccc(CN)c2)[C@@H](c2cc(Cl)cc(NC(=O)OCc3ccccc3)c2)C1,55.7 µM,77.6 µM
O=C(Nc1ccc2c(c1)CNC2)c1cc(Br)cc2[nH]c([C@H]3CCOC3)nc12,98.5 µM,> 100 µM

SMILES,IC50 (Genome polyprotein [1]),IC50 (Genome polyprotein [2])
CNC(=O)[C@H](Nc1ccc2c(c1)CNC2)c1cc(Cl)cc(C2CC2)c1,> 99.5 µM,> 100 µM
O=C(Nc1ccc2c(c1)CNC2)c1c(Br)cc(Cl)c2[nH]ncc12,> 99.5 µM,> 100 µM
O=C(Nc1ccc2c(c1)CNC2)C1(c2ccc(Cl)cc2)CCCC1,> 99.5 µM,> 100 µM
O=C(Nc1ccc2c(c1)CNC2)c1c(Br)ccc2[nH]ncc12,> 99.5 µM,> 100 µM
N#C[C@]1(Nc2ccc3c(c2)CNC3)C(=O)Nc2ccc(Cl)cc21,> 99.5 µM,> 100 µM
N#C[C@H](Nc1ccc2c(c1)CNC2)c1cc(Cl)cc(C2CC2)c1,> 99.5 µM,> 100 µM
O=C1Cc2c(cccc2C(=O)Nc2ccc3c(c2)C(=O)OC3)N1,> 99.5 µM,> 100 µM
O=C(Nc1ccc2c(c1)CNC2)c1nccc2[nH]ncc12,> 99.5 µM,> 100 µM
CC(C)(C)OC(=O)N1Cc2ccc(NC(=O)c3cc(Cl)cc4[nH]ncc34)cc2C1,> 99.5 µM,> 100 µM
N#Cc1cc(Cl)cc([C@H](C#N)Nc2ccc3c(c2)CNC3)c1,> 99.5 µM,> 100 µM
Cc1cnc([C@H]2CCCN(C(=O)Nc3ccc4c(c3)CNC4)C2)s1,> 99.5 µM,> 100 µM
CC(C)c1ccc(Cl)cc1C(=O)Nc1ccc2c(c1)CNC2,> 99.5 µM,> 100 µM
CCCN1C(=O)[C@](Nc2ccc3c(c2)CNC3)(C(N)=O)c2cc(Cl)ccc21,> 99.5 µM,> 100 µM
Cc1c(C(=O)Nc2cc3c(cn2)OCC3)cc(C2CC2)n1C,> 99.5 µM,> 100 µM
CC(C)COc1ccc(Cl)cc1C(=O)Nc1ccc2c(c1)CNC2,> 99.5 µM,> 100 µM
CC1(C)CN(C(=O)Nc2ccc3c(c2)CNC3)CC(F)(F)C1,> 99.5 µM,> 100 µM
Cc1c(C(=O)Nc2cc(CCCN)ccn2)cnn1C1CC1,> 99.5 µM,> 100 µM
O=C(Nc1ccc2c(c1)CNC2)c1cc(Cl)ccc1OC1CCCC1,> 99.5 µM,> 100 µM
CNC(=O)[C@]1(Nc2ccc3c(c2)CNC3)C(=O)Nc2ccc(Cl)cc21,> 99.5 µM,> 100 µM
NS(=O)(=O)c1cc(Cl)cc(C(=O)Nc2ccc3c(c2)CNC3)c1,> 99.5 µM,> 100 µM
O=C(NC1CCOCC1)[C@H](Nc1ccc2c(c1)CNC2)c1cc(Cl)cc(C2CC2)c1,> 99.5 µM and 37.7 µM and 56.5 µM,> 100 µM
O=C(Nc1ccc2c(c1)OCCNC2)c1cc(Cl)cc2[nH]ncc12,> 99.5 µM,> 100 µM

SMILES,IC50 (Genome polyprotein [1]),IC50 (Genome polyprotein [2])
CNC(=O)[C@]1(Nc2ccc3c(c2)CNC3)CCc2ccccc21,> 99.5 µM,> 100 µM
O=C(Nc1ccc2c(c1)CNC2)c1cc2ccccc2[nH]1,> 99.5 µM,> 100 µM
CCc1cc(Cl)cc(C(=O)Nc2ccc3c(c2)CNC3)c1,> 99.5 µM,> 100 µM
Cc1ccc2cc(Cl)cc(C(=O)Nc3ccc4c(c3)CNC4)c2n1,85.7 µM,53.2 µM and > 100 µM
Cn1cc(CCc2nc3c(C(=O)Nc4ccc5c(c4)CNC5)cc(Cl)cc3[nH]2)cn1,32.5 µM,19.4 µM and 21.6 µM
Cn1cnc2nc(Cl)cc(C(=O)Nc3ccc4c(c3)CNC4)c21,> 99.5 µM,> 100 µM
O=C(Nc1cnc2c(c1)CNCC2)c1cc(Cl)cc2[nH]ncc12,> 99.5 µM,> 100 µM
C[C@H](NC(=O)c1cc(Cl)cc2[nH]ncc12)c1ccc2c(c1)CNC2,> 99.5 µM,> 100 µM
O=C(Nc1ccc2c(c1)CNC2)c1cc(F)cc2[nH]ncc12,59.5 µM,37.8 µM and 24.3 µM
NCCCc1ccnc(NC(=O)c2cc(C3CC3)no2)c1,> 99.5 µM,> 100 µM
O=C(Nc1ccc2c(c1)CNC2)c1cc(Cl)ccc1OCC(F)(F)F,> 99.5 µM,> 100 µM
O=C(Nc1ccc2c(c1)CNC2)c1cc(Cl)nc2[nH]ncc12,> 99.5 µM,> 100 µM
Cn1ncc2c(C(=O)Nc3ccc4c(c3)CNC4)cc(-c3cccnc3)nc21,92.7 µM,> 100 µM
Cc1c(C(=O)Nc2cc(CN(C)C)ccn2)cc(C2CC2)n1C,> 99.5 µM,> 100 µM
O=C(Nc1ccc2c(c1)CNCCO2)c1cc(Cl)cc2[nH]ncc12,> 99.5 µM,> 100 µM
O=C(NC[C@H]1CCCO1)[C@H](Nc1ccc2c(c1)CNC2)c1cc(Cl)cc(C2CC2)c1,> 99.5 µM,> 100 µM
C#Cc1ccnc(NC(=O)c2cc(C3CC3)n(C)c2C)c1,> 99.5 µM,> 100 µM
O=C(Nc1ccc2c(c1)CNC2)N1CCC[C@H](CC2CCC2)C1,> 99.5 µM,> 100 µM
CCn1ncc2c(C(=O)Nc3ccc4c(c3)CNC4)cc(C)nc21,> 99.5 µM,> 100 µM
NCCCc1ccnc(NC(=O)c2cnn3c2CCC3)c1,> 99.5 µM,> 100 µM
Cc1ccc2[nH]ncc2c1C(=O)Nc1ccc2c(c1)CNC2,> 99.5 µM,> 100 µM
CCS(=O)(=O)c1ccc(Cl)cc1C(=O)Nc1ccc2c(c1)CNC2,> 99.5 µM,> 100 µM

SMILES,IC50 (Genome polyprotein [1]),IC50 (Genome polyprotein [2])
O=C(NCC1CCOCC1)[C@H](Nc1ccc2c(c1)CNC2)c1cc(Cl)cc2[nH]ncc12,> 99.5 µM,> 100 µM
O=C(Nc1ccc2c(c1)CNC2)c1ccc2scnc2c1,23.2 µM and 10.6 µM,41.5 µM and 45.1 µM
NCc1cc(NC(=O)c2cc(Cl)cc(NC(=O)OCc3ccccc3)c2)cc(-c2ccc(OCC(=O)O)nc2)c1,> 99.5 µM,> 100 µM
O=C(Nc1ccc2c[nH]nc2c1)c1cc(Cl)cc2[nH]ncc12,> 99.5 µM,> 100 µM
O=C(Nc1ccc2c(c1)CNC2)c1ccc(F)c2[nH]ncc12,69.7 µM,> 100 µM
O=C(NCc1ccc(F)cc1)[C@H](Nc1ccc2c(c1)CNC2)c1cc(Cl)cc2[nH]ncc12,> 99.5 µM,> 100 µM
COc1ccc(CN2Cc3cc(NC(=O)c4cc(Cl)cc5[nH]ncc45)cc(Br)c3C2)cc1,> 99.5 µM,> 100 µM
O=C(Nc1cccc2c1CNC2)c1cc(Cl)cc2[nH]ncc12,> 99.5 µM,> 100 µM
COCCc1ccnc(NC(=O)c2cc(C3CC3)n(C)c2C)c1,> 99.5 µM,> 100 µM
CCCN1C(=O)[C@](Nc2ccc3c(c2)CNC3)(C(=O)NC)c2ccccc21,> 99.5 µM,> 100 µM
COCCN(C)Cc1ccnc(NC(=O)c2cc(C3CC3)n(C)c2C)c1,> 99.5 µM,> 100 µM
O=C(Nc1ccc2c(c1)CNC2)c1cc(Cl)cc2ccncc12,> 99.5 µM,> 100 µM
Cc1c(C(=O)Nc2ccc3c(c2)CNC3)cc(C2CC2)n1C,> 99.5 µM,> 100 µM
O=C(Nc1ccc2c(c1)CNC2)N1CC[C@H](CC(F)(F)F)C1,> 99.5 µM,> 100 µM
O=C(Nc1ccc2c(c1)CNC2)N1CC(F)(F)CC2(CCC2)C1,> 99.5 µM,> 100 µM
NCCCc1ccnc(NC(=O)c2nnc(C3CC3)s2)c1,> 99.5 µM,> 100 µM
Cc1ccc(C(=O)Nc2ccc3c(c2)CNC3)c2[nH]ncc12,> 99.5 µM,> 100 µM
N#C[C@H](Nc1ccc2c(c1)CNC2)c1cccc2c1CCNC2=O,> 99.5 µM,> 100 µM
Cc1c(C(=O)Nc2ncc3c(c2C#N)CCOC3)cc(C2CC2)n1C,> 99.5 µM,> 100 µM
CC1([C@H]2CCCN(C(=O)Nc3ccc4c(c3)CNC4)C2)CC1,> 99.5 µM,> 100 µM
O=C(Nc1ccc2c(c1)CNC2)c1cc(Cl)ccc1-n1ccnc1,> 99.5 µM,> 100 µM
CCCN1C(=O)[C@](Nc2ccc3c(c2)CNC3)(C(=O)NC)c2cc(Cl)ccc21,> 99.5 µM,> 100 µM
